This is an account of results in patent US10538497B2, “Compounds as indoleamine 2,3-dioxygenase inhibitors” (Merck Sharp & Dohme Corp., priority 2015, dated 2020).

Assay [1] addresses T1, IDO1 (Homo sapiens (Human), UniProt P14902). As to the kind of experiment: IDO1 Enzyme Assay. The settings on record: HIS-tagged recombinant IDO1, 40 nM; for pIC50: read-out: IDO1 Enzyme Assay, IC50; for IC50: IDO1 Enzyme Assay, IC50, nM.
Assay [2] deals with T1, IDO1. As to the kind of experiment: IDO1 Cellular Assay in Hela Cells Stimulated with IFNγ. It is filed as cell-based. The settings on record: Hela cells stimulated with IFNγ 100 ng/mL; read-out: IDO1 HELA Cell Assay, IC50. As to the method:
IDO1 Cellular Assay in Hela Cells Stimulated with IFNγ
Hela cells were cultured in complete Hela culture medium (90% EMEM, 10% heat-inactivated fetal bovine serum) and expanded to about 1×10^9 cells. The cells were then collected and frozen down at 10×10^6 cells/vial in 1 mL frozen medium (90% complete Hela culture medium, 10% DMSO)
Frozen Hela cells were thawed and transferred into Hela assay medium (99% complete Hela culture medium, 1% Pen/Strep) with 20 mL medium/vial of cells. The cells were spun down at 250 g in a table top centrifuge for 5 min and suspended in same volume of Hela assay medium. The cells were then counted and adjusted to a density of 2×10^5 cells/ml in Hela assay medium. Sterile L-tryptophan were added to the cells with final concentration of 300 uM L-tryptophan. A small aliquot (2 mL/plate) of Hela cells were set aside and were not treated with IFNγ, to serve as the Max-E control. The rest of Hela cells were added with sterile IFNγ (Cat #285-IF, R & D systems) with a final concentration of 100 ng/mL.
Hela cells with and without IFNγ were dispensed to the respective wells of 384-well assay plates containing the compounds. The plates were incubated for about 48 hours at a 37° C., 5% CO2 incubator. […] The plates were centrifuged for 1 min at 200×g. The resulting fluorescence was measured in a Spectramax plate reader (Molecular Devices) with a 400 nm excitation filter and a 510 nm emission filter.

pIC50: −log10 of the molar value.

T1 sequence (P14902 whole entry): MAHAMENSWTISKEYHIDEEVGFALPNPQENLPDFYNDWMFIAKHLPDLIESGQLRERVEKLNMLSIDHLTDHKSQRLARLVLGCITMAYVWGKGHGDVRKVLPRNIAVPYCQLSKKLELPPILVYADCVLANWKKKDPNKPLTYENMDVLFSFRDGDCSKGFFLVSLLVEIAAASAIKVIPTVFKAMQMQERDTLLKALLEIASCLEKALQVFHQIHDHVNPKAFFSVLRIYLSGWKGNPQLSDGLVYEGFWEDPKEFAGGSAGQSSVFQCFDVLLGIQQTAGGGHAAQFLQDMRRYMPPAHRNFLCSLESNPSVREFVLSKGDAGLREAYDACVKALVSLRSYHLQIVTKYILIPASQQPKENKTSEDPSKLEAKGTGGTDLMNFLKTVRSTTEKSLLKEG

With `O=C(COc1nonc1/C(=N/O)Nc1ccc(F)c(Br)c1)NCCO` [Example 6, 2-((4-(N-(3-Bromo-4-fluorophenyl)-N′-hydroxycarbamimidoyl)-1,2,5-oxadiazol-3-yl)oxy)-N-(2-hydroxyethyl)acetamide], the pIC50 – broadly, the IC50 on a negative log10 scale, so that one unit is a factor of ten – at IDO1 [1] is 7.36; on IDO1 [2] it was 6.84.

Consider `O=C(CSc1nonc1/C(=N/O)Nc1ccc(F)c(Br)c1)NC1(CO)CC1` [Example 202, 2-((4-(N-(3-bromo-4-fluorophenyl)-N′-hydroxycarbamimidoyl)-1,2,5-oxadiazol-3-yl)thio)-N-(1-(hydroxymethyl)cyclopropyl) acetamide], for which the results for the pIC50 on IDO1 [1] and at IDO1 [2] were 7.69 and 7.91, respectively. As to `O=C(CSc1nonc1/C(=N/O)Nc1ccc(F)c(Br)c1)N1CCOCC1` [Example 193, N-(3-bromo-4-fluorophenyl)-N′-hydroxy-4-[(2-morpholin-4-yl-2-oxoethyl)sulfanyl]-1,2,5-oxadiazole-3-carboximidamide], the pIC50 was 7.13 at IDO1 [1] and 6.84 at IDO1 [2]. For `O=C(CSc1nonc1C(=NO)Nc1ccc(F)c(Br)c1)NCCF` [Example 137, 2-({4-[N-(3-bromo-4-fluorophenyl)-N′-hydroxycarbamimidoyl]-1,2,5-oxadiazol-3-yl}sulfanyl)-N-(2-fluoroethyl)acetamide], the IC50 (as a rule, the concentration needed to halve the response being measured) at IDO1 [1] was found to be 34.9 nM. As to `O=C(CSc1nonc1C(=NO)Nc1ccc(F)c(Br)c1)N1CCC[C@H]1CO` [Example 134, N-(3-bromo-4-fluorophenyl)-N′-hydroxy-4-({2-[(2S)-2-(hydroxymethyl)pyrrolidin-1-yl]-2-oxoethyl}sulfanyl)-1,2,5-oxadiazole-3-carboximidamide], the IC50 at IDO1 [1] came to 120 nM.

Take `O=c1cc(C(F)(F)F)cc(CSc2nonc2/C(=N/O)Nc2ccc(F)c(Br)c2)[nH]1` [Example 88, N-(3-bromo-4-fluorophenyl)-N′-hydroxy-4-({[6-oxo-4-(trifluoromethyl)-1,6-dihydropyridin-2-yl]methyl}sulfanyl)-1,2,5-oxadiazole-3-carboximidamide]: the negative-log IC50 (pIC50) at IDO1 [1] and at IDO1 [2] was 6.76 throughout. Take `CC(C)(CO)NC(=O)CSc1nonc1/C(=N/O)Nc1ccc(F)c(Br)c1` [Example 27, 2-((4-(N-(3-bromo-4-fluorophenyl)-N′-hydroxycarbamimidoyl)-1,2,5-oxadiazol-3-yl)thio)-N-(1-hydroxy-2-methylpropan-2-yl)acetamide]: the pIC50 on IDO1 [1] was 7.53; at IDO1 [2] it was 7.75.

With `NS(=O)(=O)N[C@H](CO)CSc1nonc1/C(=N/O)Nc1ccc(F)c(Br)c1` [Example 194, N-(3-bromo-4-fluorophenyl)-N′-hydroxy-4-{[(2R)-3-hydroxy-2-(sulfamoylamino)propyl]sulfanyl}-1,2,5-oxadiazole-3-carboximidamide], the pIC50 on IDO1 [1] is 7.29; at IDO1 [2], 7.33. Turning to `NS(=O)(=O)NCCOc1nonc1/C(=N/O)Nc1ccc(F)c(Br)c1` [Example 212, N-(3-bromo-4-fluorophenyl)-N′-hydroxy-4-(2-(sulfamoylamino)ethoxy)-1,2,5-oxadiazole-3-carboximidamide], the results for the negative-log IC50 (pIC50) at IDO1 [1] and at IDO1 [2] were 7.28 and 6.95, respectively.

For the compound `O=C(CSc1nonc1/C(=N/O)Nc1ccc(F)c(Br)c1)N[C@H]1CCOC[C@H]1O` [Example 198, 2-((4-(N-(3-bromo-4-fluorophenyl)-N′-hydroxycarbamimidoyl)-1,2,5-oxadiazol-3-yl)thio)-N-((3S,4S)-3-hydroxytetrahydro-2H-pyran-4-yl)acetamide], the pIC50 is 7.25 at IDO1 [1] and 6.83 on IDO1 [2]. Turning to `O=S1(=O)NC[C@H](CSc2nonc2/C(=N/O)Nc2ccc(F)c(Br)c2)N1` [Example 33, (R)—N-(3-bromo-4-fluorophenyl)-4-(((1,1-dioxido-1,2,5-thiadiazolidin-3-yl)methyl)thio)-N′-hydroxy-1,2,5-oxadiazole-3-carboximidamide], the negative logarithm of the IC50 (pIC50) is 7.27 on IDO1 [1] and 7.58 at IDO1 [2]. Take `O=C(CSc1nonc1C(=NO)Nc1ccc(F)c(Br)c1)N1CCC[C@@H]1CO` [Example 135, N-(3-bromo-4-fluorophenyl)-N′-hydroxy-4-({2-[(2R)-2-(hydroxymethyl)pyrrolidin-1-yl]-2-oxoethyl}sulfanyl)-1,2,5-oxadiazole-3-carboximidamide]: the IC50 on IDO1 [1] came out at 106 nM.

Take `C[C@H](O)CNC(=O)CSc1nonc1/C(=N/O)Nc1ccc(F)c(Br)c1` [Example 200, (S)-2-((4-(N-(3-bromo-4-fluorophenyl)-N′-hydroxycarbamimidoyl)-1,2,5-oxadiazol-3-yl)thio)-N-(2-hydroxypropyl)acetamide]: the pIC50 on IDO1 [1] is 7.52; on IDO1 [2], 7.83. With `O=C(CSc1nonc1C(=NO)Nc1ccc(F)c(Br)c1)N1CCCC1` [Example 136, N-(3-bromo-4-fluorophenyl)-N′-hydroxy-4-[(2-oxo-2-pyrrolidin-1-ylethyl)sulfanyl]-1,2,5-oxadiazole-3-carboximidamide], the IC50 on IDO1 [1] came to 112 nM. Turning to `CC(C)(O)CNC(=O)CSc1nonc1/C(=N/O)Nc1ccc(F)c(Br)c1` [Example 28, 2-((4-(N-(3-bromo-4-fluorophenyl)-N′-hydroxycarbamimidoyl)-1,2,5-oxadiazol-3-yl)thio)-N-(2-hydroxy-2-methylpropyl)acetamide], the pIC50 on IDO1 [1] was 7.42; at IDO1 [2] it was 7.18. As for `CC(C)(Sc1nonc1/C(=N/O)Nc1ccc(F)c(Br)c1)C(=O)NC[C@@H](O)CO` [Example 204, (R)-2-((4-(N-(3-bromo-4-fluorophenyl)-N′-hydroxycarbamimidoyl)-1,2,5-oxadiazol-3-yl)thio)-N-(2,3-dihydroxypropyl)-2-methylpropanamide], the pIC50 was 7.08 at IDO1 [1] and 6.84 on IDO1 [2].

`C[C@@H](O)CNC(=O)CSc1nonc1/C(=N/O)Nc1ccc(F)c(Br)c1` [Example 201, (R)-2-((4-(N-(3-bromo-4-fluorophenyl)-N′-hydroxycarbamimidoyl)-1,2,5-oxadiazol-3-yl)thio)-N-(2-hydroxypropyl)acetamide]: the pIC50 was 7.65 at IDO1 [1] and 7.57 on IDO1 [2]. With `CC(=O)NCCOc1nonc1/C(=N/O)Nc1ccc(F)c(Br)c1` [Example 5, N-(2-((4-(N-(3-bromo-4-fluorophenyl)-N′-hydroxycarbamimidoyl)-1,2,5-oxadiazol-3-yl)oxy)ethyl)acetamide], the pIC50 at IDO1 [1] is 7.32; at IDO1 [2], 7.03. For the compound `CNS(=O)(=O)NC(=O)CSc1nonc1/C(=N/O)Nc1ccc(F)c(Br)c1` [Example 199, 2-((4-(N-(3-bromo-4-fluorophenyl)-N′-hydroxycarbamimidoyl)-1,2,5-oxadiazol-3-yl)thio)-N-(N-methylsulfamoyl)acetamide], the negative-log IC50 (pIC50) was 7.24 at IDO1 [1] and 6.29 on IDO1 [2]. Take `O=c1c(NCCSc2nonc2/C(=N/O)Nc2ccc(F)c(Br)c2)c(NCC2CC2)c1=O` [Example 89, N-(3-bromo-4-fluorophenyl)-4-{[2-({2-[(cyclopropylmethyl)amino]-3,4-dioxocyclobut-1-en-1-yl}amino)ethyl]sulfanyl}-N′-hydroxy-1,2,5-oxadiazole-3-carboximidamide]: the negative-log IC50 (pIC50) on IDO1 [1] was 7.41. Regarding `CS(=O)(=O)NCCOc1nonc1/C(=N/O)Nc1ccc(F)c(Br)c1` [Example 214, N-(3-bromo-4-fluorophenyl)-N′-hydroxy-4-(2-(methylsulfonamido)ethoxy)-1,2,5-oxadiazole-3-carboximidamide], the negative logarithm of the IC50 (pIC50) on IDO1 [1] was 6.69; at IDO1 [2] it was 7.35. As for `O=C(CSc1nonc1/C(=N/O)Nc1ccc(F)c(Br)c1)N1C[C@@H](O)[C@@H](O)C1` [Example 195, N-(3-bromo-4-fluorophenyl)-4-((2-((3S,4R)-3,4-dihydroxypyrrolidin-1-yl)-2-oxoethyl)thio)-N′-hydroxy-1,2,5-oxadiazole-3-carboximidamide], the results for the pIC50 on IDO1 [1] and at IDO1 [2] were 7.03 and 6.47, respectively. In the case of `NCCOc1nonc1/C(=N/O)Nc1ccc(F)c(Br)c1` [Example 213, 4-(2-aminoethoxy)-N-(3-bromo-4-fluorophenyl)-N′-hydroxy-1,2,5-oxadiazole-3-carboximidamide], the negative logarithm of the IC50 (pIC50) on IDO1 [1] is 6.89; on IDO1 [2] it was 6.22. Consider `O=C(CSc1nonc1/C(=N/O)Nc1ccc(F)c(Br)c1)NCC(O)CN1CCOCC1` (single isomer, unassigned) [Example 207, 2-((4-(N-(3-bromo-4-fluorophenyl)-N′-hydroxycarbamimidoyl)-1,2,5-oxadiazol-3-yl)thio)-N-(2-hydroxy-3-morpholinopropyl)acetamide], for which the IC50 at IDO1 [1] is 43.1 nM. Also, the pIC50 on IDO1 [2] was 6.85.

With `O=c1c(NCCO)c(NCCSc2nonc2/C(=N/O)Nc2ccc(F)c(Br)c2)c1=O` [Example 90, N-(3-bromo-4-fluorophenyl)-N′-hydroxy-4-{[2-({2-[(2-hydroxyethyl)amino]-3,4-dioxocyclobut-1-en-1-yl}amino)ethyl]sulfanyl}-1,2,5-oxadiazole-3-carboximidamide], the pIC50 on IDO1 [1] is 7.53.
